{
  "source": "paper PMC9691367",
  "about": "“The PROTAC selectively degrading Bcl-xL represents a novel Hedgehog pathway inhibitor with capacity of combating resistance to Smoothened inhibitors while sparing bone growth” (Theranostics, 2022)",
  "key": {"Bcl-xL [1]": {"target": "Bcl-xL (Homo sapiens, UniProt Q07817)", "sequence (Q07817 whole entry, species assumed)": "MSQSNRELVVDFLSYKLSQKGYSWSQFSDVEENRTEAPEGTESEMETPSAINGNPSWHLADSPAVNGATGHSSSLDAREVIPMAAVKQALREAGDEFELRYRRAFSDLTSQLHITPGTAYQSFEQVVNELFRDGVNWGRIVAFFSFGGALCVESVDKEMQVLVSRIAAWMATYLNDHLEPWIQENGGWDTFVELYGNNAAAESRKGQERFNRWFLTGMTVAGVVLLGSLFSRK", "test": "Competitive fluorescence polarization assay, Bcl-xL / FAM-Bad", "format": "binding", "settings": "Bcl-xL 5 nM, FAM-Bad 5 nM", "protocol": "Competitive fluorescence polarization assays were carried out in black-walled plates in assay buffer (20 mM Na2HPO4 ·12H2O, 20 mM NaH2PO4·12H2O, 1 mM EDTA, 50 mM NaCl, 0.05% PF-68). The use of protein/peptide probe pairs was as follows: Bcl-xL (5 nM) and FAM-Bad (5 nM), Bcl-2 (100 nM) and FAM-Bax (5 nM), Mcl-1 (100 nM) and FAM-Bim (5 nM). Assay buffer, proteins, drugs, and peptides were added to the assay plates sequentially. The assay plates were slightly shaken for 3 min and incubated for 30 min at room temperature. The fluorescence polarization was measured on a Synergy 2 reader (BioTek)."}, "Bcl-xL [2]": {"target": "T1, Bcl-xL (Mus musculus, UniProt Q64373)", "T1 construct": "endogenous in cells; host or cells: NIH-3T3", "T1 sequence (Q64373 whole entry)": "as the sequence (Q07817 whole entry, species assumed) above, with G40E, S43A, M45R, A168S, E193D counted along it", "test": "Western blot of Bcl-xL degradation in NIH-3T3 cells", "format": "cell-based", "protocol": "(§1) Cells were lysed in cell lysis buffer (50 mM Tris pH 8.0, 150 mM NaCl, 10% glycerol, 1 mM EDTA, 50 mM NaF, and 0.1% NP-40) supplemented with protease and phosphatase inhibitors. Total protein extracts of tissues were generated in radioimmunoprecipitation (RIPA) assay lysis buffer containing complete protease and phosphatase inhibitor cocktail. Protein content was quantified using the Pierce BCA Protein Assay Kit (#23225, Thermo Fisher Scientific). The proteins were separated by SDS-PAGE, electrophoretically transferred to polyvinylidene difluoride (PVDF) blotting membranes (#LC2002, Thermo Fisher Scientific), and subjected to routine immunoblot analysis with primary antibodies as follows: anti-Bcl-2 (#15071), anti-Mcl-1 (#94296), anti-VHL (#68547), anti-CRBN (#71810), and anti-Sufu (#2522) were obtained from Cell Signaling Technology (Danvers, Massachusetts, USA); anti-Bcl-xL (#ab32370), anti-Gli1 (#ab134906), and anti-Smoothened (#ab236465) were obtained from Abcam (Cambridge, CB2 0AX, UK); anti-GAPDH (#60004-1-Ig) and anti-β-tubulin (#10094-1-AP) were purchased from Proteintech Group, Inc. (Rosemont, IL 60018, USA). The results were quantified by densitometry using ImageJ software (NIH)."}, "[3]": {"system": "light II and NIH-3T3 cells", "test": "In vitro cytotoxicity assay (MTT)", "format": "cell-based", "settings": "10 μM, 72 h", "protocol": "Cells were seeded in 96-well plates at an appropriate density and treated with compounds for 72 h. The effects on proliferation were determined using MTT according to the manufacturer's protocol.\nFigure S2. (A) Viability of NIH-3T3 cells and light II cells was determined by MTT cytotoxicity assays after incubation with various concentrations of SIAIS361034 as indicated for 72 h. Data represent mean ± SD (n = 3). (B) NF-κB luciferase analysis of the effect of SIAIS361034 on NF-κB signaling pathway in 293T cells.The 293T cells were transfected with NF-κB luciferase reporter and Renilla-TK plasmids and […]\n(§2) μM) for 6 h. Data represent mean ± SD (n = 3). (C) TCF/LEF luciferase analysis of the effect of SIAIS361034 on Wnt signaling pathway in LS174T cells. The LS174T cellswere transfected with TCF/LEF luciferase reporter and Renilla-TK plasmids and […]\n(§3) Data represent mean ± SD (n = 3).\n(§4) (1 picture or pasted object on this page, not shown here)"}, "NF-κB signaling pathway": {"system": "NF-κB signaling pathway", "test": "NF-κB luciferase reporter assay in 293T cells", "format": "cell-based", "settings": "TNF-α 10 ng/mL, 6 h, SIAIS361034 10 μM, BAY 11-7082 20 μM", "protocol": "(§5) Cells seeded in 96-well plates were treated with various treatments as indicated. The luciferase activity in the cell lysates was measured using Dual-Luciferase Reporter Assay System (Promega, Madison, WI, USA) according to the manufacturer's instructions in a luminometer (Molecular Devices, Sunnyvale, CA). The firefly luciferase values were normalized to Renilla values. […]\nData represent mean ± SD (n = 3). (B) NF-κB luciferase analysis of the effect of SIAIS361034 on NF-κB signaling pathway in 293T cells.The 293T cells were transfected with NF-κB luciferase reporter and Renilla-TK plasmids and […]\nμM) for 6 h. Data represent mean ± SD (n = 3). […]\nas §3, §4"}, "Wnt signaling pathway": {"system": "Wnt signaling pathway", "test": "TCF/LEF luciferase reporter assay in LS174T cells", "format": "cell-based", "settings": "PGE2 1 μM, 24 h, SIAIS361034 10 μM, H-89 20 μM", "protocol": "as §5, §2, §3, §4"}, "Gli1": {"system": "Gli1", "test": "Western blot of Gli1 in light II cells", "format": "cell-based", "settings": "1 µM", "protocol": "as §1"}, "[4]": {"system": "Hh pathway (Gli-luciferase) provoked by Smo WT / Smo mutants", "test": "Dual luciferase reporter assay, Hh activity induced by ectopic Smo WT or Smo mutants in light II cells", "format": "cell-based", "settings": "for IC50: 36 h", "text": "The TCF/LEF luciferase reporter plasmid, NF-κB luciferase reporter plasmid, and TK-Renilla luciferase plasmid were purchased from Promega (Madison, WI, USA). Smo plasmid was purchased from Origene (Rockville, MD, USA). The Smo mutant plasmids were generated from wild type Smo plasmid using QuickChange Site-Directed Mutagenesis kit from Agilent (Santa Clara, CA, USA) and confirmed by sequencing. Information on Smo mutants plasmids is provided in Supplementary data 2. The Gli1 plasmid and Gli2-HA plasmid were obtained from Addgene (Cambridge, MA, USA). Transient transfections were performed by Lipofectamine 2000 reagent from Invitrogen (Grand Island, NY, USA) according to the manufacturer's instructions.\nCells seeded in 96-well plates were treated with various treatments as indicated. The luciferase activity in the cell lysates was measured using Dual-Luciferase Reporter Assay System (Promega, Madison, WI, USA) according to the manufacturer's instructions in a luminometer (Molecular Devices, Sunnyvale, CA). The firefly luciferase values were normalized to Renilla values."}, "[5]": {"system": "hair growth and Hh pathway activity in skin", "test": "Depilatory mouse model", "format": "in vivo", "protocol": "For Depilatory model studies, male C57BL/6J mice (7 to 8 weeks of age) were purchased from Shanghai Lingchang Biotechnology Co. (Shanghai, China). After 2 days of acclimation, only healthy mice were used in the experiment. The back skin of the anesthetized mice was shaved and depilated using the depilatory Nair (Church & Dwight Co., Inc.). After 4 days, the depilated mice were randomized into groups for treatments as indicated. The back skin phenotypes were recorded by taking pictures every 3 days. Skin tissues were harvested 6 h after the last dosage to examining Gli1 mRNA expression as well as Gli1 and Bcl-xL protein levels."}},
  "note": "Like-named read-outs stand apart in the source and are kept apart here.",
  "data": [
    {"smiles": "CC1(C)CCC(c2ccc(Cl)cc2)=C(CN2CCN(c3ccc(C(=O)NS(=O)(=O)c4ccc(NCCCN5CCN(CCCC#Cc6cccc7c6CN(C6CCC(=O)NC6=O)C7=O)CC5)c(S(=O)(=O)C(F)(F)F)c4)cc3)CC2)C1", "note": "(stereo not drawn) [SIAIS361034]", "values": [
      {"measurement": "Ki", "setting": "Bcl-xL [1]", "result": 37.3, "unit": "nM"},
      {"measurement": "duration of Bcl-xL degradation", "setting": "Bcl-xL [2]; 1 µM for 24 h followed by drug withdrawal", "result": "around 48 h"},
      {"measurement": "Bcl-xL degradation", "setting": "Bcl-xL [2]; 1 µM, western blot", "result": "significantly degraded Bcl-xL"},
      {"measurement": "Dmax", "setting": "Bcl-xL [2]; NIH3T3, 24 h, western blot, read-out: maximum degradation (Dmax) of Bcl-xL", "result": 88.1, "unit": "%"},
      {"measurement": "effect on Bcl-xL mRNA levels", "setting": "Bcl-xL [2]; data not shown", "result": "almost no effect"},
      {"measurement": "cytotoxicity (MTT)", "setting": "[3]", "result": "no toxic effects"},
      {"measurement": "NF-κB luciferase activity activated by TNF-α", "setting": "NF-κB signaling pathway", "result": "no inhibitory activity"},
      {"measurement": "TCF/LEF luciferase activity (Wnt signaling) activated by PGE2", "setting": "Wnt signaling pathway", "result": "failed to repress"},
      {"measurement": "Gli1 protein level", "setting": "Gli1", "result": "decreased Gli1 protein level"},
      {"measurement": "IC50 shift between Smo wild-type and mutations", "setting": "[4]; Gli-luciferase", "result": "no significant IC50 shift"},
      {"measurement": "Hh activity provoked by wild type Smo and Smo mutants", "setting": "[4]; Smo WT, D473H, H231R, W281C, W535L, L412F, F460L, GDC-0449 10 μM (Figure S3B-D)", "result": "obviously inhibited"},
      {"measurement": "IC50", "setting": "[4]; ectopic Smo D473H, read-out: IC50 value, Smo D473H", "result": 188, "unit": "nM"},
      {"measurement": "IC50", "setting": "[4]; ectopic Smo F460L, read-out: IC50 value, Smo F460L", "result": 147, "unit": "nM"},
      {"measurement": "IC50", "setting": "[4]; ectopic Smo H231R, read-out: IC50 value, Smo H231R", "result": 117, "unit": "nM"},
      {"measurement": "IC50", "setting": "[4]; ectopic Smo L412F, read-out: IC50 value, Smo L412F", "result": 40.4, "unit": "nM"},
      {"measurement": "IC50", "setting": "[4]; ectopic Smo W281C, read-out: IC50 value, Smo W281C", "result": 92.9, "unit": "nM"},
      {"measurement": "IC50", "setting": "[4]; ectopic Smo W535L, read-out: IC50 value, Smo W535L", "result": 171, "unit": "nM"},
      {"measurement": "IC50", "setting": "[4]; ectopic Smo WT, read-out: IC50 value, Smo WT", "result": 186, "unit": "nM"},
      {"measurement": "hair growth during depilation-induced hair regeneration", "setting": "[5]; male C57BL/6J mice, administered after 4 days of depilation", "result": "significantly retarded hair growth"},
      {"measurement": "Hh activity in skin (Gli1 mRNA)", "setting": "[5]; skin harvested 6 h after the last dosage, RT-qPCR", "result": "suppressed the Hh activity"},
      {"measurement": "Gli1 and Bcl-xL protein levels in skin tissues", "setting": "[5]; skin harvested 6 h after the last dosage, western blot", "result": "suppressed the expression of Gli1 and Bcl-xL"}
    ]}
  ]
}
